# Test results taken from patent US6015829A, “1-phenylpyrazole compounds and medicinal application thereof” (Yoshitomi Pharmaceutical Industries, ltd., priority 1996, dated 2000).
# Test system: uric acid value of mouse serum
# Experiment: Lowering of Uric Acid Value of Mouse Serum
# Format: in vivo
# Conditions: male ICR mice, 0.3 mg/kg into the stomach
# Experimental: Lowering of Uric Acid Value of Mouse Serum
# A sample suspended in 0.5% aqueous hydroxypropyl methyl cellulose (HPMC) solution was forcibly administered into the stomach of 4 to 6 week-old male ICR mice (4 per group) in a dose of 0.3 mg/kg using an oral sound probe. At 2 and 6 hours after the administration of the sample, mice were anesthetized with halothane. Blood samples were taken from both carotid arteries and the mice were exsanguinated. The blood was stood at room temperature for 20-30 minutes and centrifuged at 2000×g for 15 minutes to give serum. The uric acid value was measured using a uric acid measurement kit (manufactured by Wako Pure Chemicals Co.) by phosphotungstic acid method. The obtained values were applied to the following formula to give uric acid value decrease percentage at 2 and 6 hours after the administration of the sample.
# Uric acid value decrease (%)=(1-average uric acid value of group administered with sample/average uric acid value of group administered with HPMC)×100
structure (smiles),measurement,setting,value
Oc1ncnc2[nH]ncc12 [allopurinol],Uric acid value decrease (%) at 2 hours,2 hours after administration,33%
same,Uric acid value decrease (%) at 6 hours,6 hours after administration,14%
